Like-named read-outs stand apart in the source and are kept apart here.
Biological target: T1, human CB2R (Homo sapiens, UniProt P34972)
T1 construct: host or cells: CHO cells
Assay: CB2R mediated modulation of cAMP synthesis
Format: cell-based
Procedure: B. CB2R Mediated Modulation of cAMP Synthesis:
Compounds of the invention were evaluated for their CB2 agonist or inverse agonistic activity in accordance with the following experimental method.
CHO cells expressing human CB2R (Euroscreen) were plated at a density of 5000 cells per well in 384 well plates and incubated overnight at 37° C. After removing the media, the cells were treated with test compounds diluted in stimulation buffer containing 1 mM IBMX, 0.25% BSA and 10 uM Forskolin. The assay was incubated for 30 minutes at 37° C. Cells were lysed and the cAMP concentration was measured using DiscoverX-XS cAMP kit, following the manufacturer's protocol. In this setting, agonists will decrease forskolin induced production of cAMP while inverse agonists will further increase forskolin induced production of cAMP. EC50 of agonists were calculated as follows. The maximal amount of cAMP produced by forskolin compared to the level of cAMP inhibited by 1 uM CP55940 is defined as 100%. The EC50 value of each test compound was determined as the concentration at which 50% of the forskolin-stimulated cAMP synthesis was inhibited. Data was analyzed using a four-parameter logistic model. (Model 205 of XLfit 4.0).

T1 sequence (P34972 whole entry): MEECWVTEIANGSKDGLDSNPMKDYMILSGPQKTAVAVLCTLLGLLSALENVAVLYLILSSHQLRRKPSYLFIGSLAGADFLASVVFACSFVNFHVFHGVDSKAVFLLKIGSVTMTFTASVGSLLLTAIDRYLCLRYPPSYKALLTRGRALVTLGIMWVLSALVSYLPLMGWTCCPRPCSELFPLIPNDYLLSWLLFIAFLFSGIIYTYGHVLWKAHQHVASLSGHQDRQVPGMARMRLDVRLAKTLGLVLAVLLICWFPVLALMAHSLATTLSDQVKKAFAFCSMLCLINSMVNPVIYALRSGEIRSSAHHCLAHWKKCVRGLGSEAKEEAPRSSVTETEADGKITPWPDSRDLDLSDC

| SMILES | EC50 [µM] | EC50 (CHO cells expressing human CB2R, concentration at which 50% of the forskolin-stimulated cAMP synthesis was inhibited, 100% defined by 1 uM CP55940, read-out: CB2 EC50) [µM] |
| --- | --- | --- |
| CC(C)(Oc1ccc(Cl)cc1)C(=O)Nc1cc(C(C)(C)C)on1 [Example 1, N-(5-tert-Butyl-isoxazol-3-yl)-2-(4-chloro-phenoxy)-2-methyl-propionamide] | 0.0024 |  |
| COC1CCN(C(C)(C)C(=O)Nc2cc(C(C)(C)C)on2)CC1 [Example 25, N-(5-tert-Butyl-isoxazol-3-yl)-2-(4-methoxy-piperidin-1-yl)-isobutyramide] | 0.00021 |  |
| CC(C)(C)c1cc(NC(=O)C(C)(C)N2CCCCC2)no1 [Example 26, N-(5-tert-Butyl-isoxazol-3-yl)-2-piperidin-1-yl-isobutyramide] | 0.00055 |  |
| CC(C)NC(C)(C)C(=O)Nc1cc(C(C)(C)C)on1 [Example 10, N-(5-tert-Butyl-isoxazol-3-yl)-2-isopropylamino-2-methyl-propionamide] | 0.1 |  |
| CC(C)(OCC1CCOCC1)C(=O)Nc1cc(C(C)(C)C)on1 [Example 3, N-(5-tert-Butyl-isoxazol-3-yl)-2-methyl-2-(tetrahydro-pyran-4-ylmethoxy)-propionamide] | 0.05 |  |
| CN(C(=O)N1CCS(=O)(=O)CC1)C(C)(C)C(=O)Nc1cc(C(C)(C)C)on1 [Example 51, 1,1-Dioxo-1λ6-thiomorpholine-4-carboxylic acid [1-(5-tert-butyl-isoxazol-3-ylcarbamoyl)-1-methyl-ethyl]-methyl-amide] | 0.039 |  |
| CC(C)(OCC1CCOCC1)C(=O)Nc1cc(C(C)(C)C)no1 [Example 2, N-(3-tert-Butyl-isoxazol-5-yl)-2-methyl-2-(tetrahydro-pyran-4-ylmethoxy)-propionamide] | 0.0081 |  |
| CC(C)N(C)C(C)(C)C(=O)Nc1cc(C(C)(C)C)on1 [Example 12, N-(5-tert-Butyl-isoxazol-3-yl)-2-(isopropyl-methyl-amino)-2-methyl-propionamide] | 0.0084 |  |
| CC(C)(C)c1cc(NC(=O)C(C)(C)N2CCOCC2)no1 [Example 13, N-(5-tert-Butyl-isoxazol-3-yl)-2-morpholin-4-yl-isobutyramide] | 0.045 |  |
| CC(C)(NC1CCCCC1)C(=O)Nc1ccc(C(F)(F)F)cn1 [Example 29, 2-Cyclohexylamino-2-methyl-N-(5-trifluoromethyl-pyridin-2-yl)-propionamide] |  | 0.469 |
| CC(C)(C)c1cc(NC(=O)C(C)(C)n2ccc3cc(Cl)ccc32)no1 [Example 35, N-(5-tert-Butyl-isoxazol-3-yl)-2-(5-chloro-indol-1-yl)-isobutyramide] | 0.00022 |  |
| CC(C)(NC1CCCCC1)C(=O)Nc1cc(C(C)(C)C)on1 [Example 14, N-(5-tert-Butyl-isoxazol-3-yl)-2-cyclohexylamino-2-methyl-propionamide] | 0.0095 |  |
| CC(C)(NCC1CCOCC1)C(=O)Nc1cc(C(C)(C)C)no1 [Example 37] | 0.014 |  |
| CC(C)(C)c1cc(NC(=O)C(C)(C)N2CCSCC2)no1 [Example 22, N-(5-tert-Butyl-isoxazol-3-yl)-2-thiomorpholin-4-yl-isobutyramide] | 0.0099 |  |
| CN(C(=O)c1ccc(Cl)cc1)C(C)(C)C(=O)Nc1cc(C(C)(C)C)on1 [Example 50, N-[1-(5-tert-Butyl-isoxazol-3-ylcarbamoyl)-1-methyl-ethyl]-4-chloro-N-methyl-benzamide] | 0.124 |  |
| CC(C)(NCC1CCOCC1)C(=O)Nc1cc(C(C)(C)C)on1 [Example 38, N-(5-tert-Butyl-isoxazol-3-yl)-2-methyl-2-[(tetrahydro-pyran-4-ylmethyl)-amino]-propionamide] | 0.125 |  |
| CC(C)(Nc1ccc(C(F)(F)F)cn1)C(=O)Nc1cc(C(C)(C)C)on1 [Example 47, N-(5-tert-Butyl-isoxazol-3-yl)-2-methyl-2-(5-trifluoromethyl-pyridin-2-ylamino)-propionamide] | 0.02 |  |

| SMILES | EC50 [µM] | EC50 (CHO cells expressing human CB2R, concentration at which 50% of the forskolin-stimulated cAMP synthesis was inhibited, 100% defined by 1 uM CP55940, read-out: CB2 EC50) [µM] |
| --- | --- | --- |
| CC(C)(NC1CCOCC1)C(=O)Nc1cc(C(C)(C)C)no1 [Example 39, N-(3-tert-Butyl-isoxazol-5-yl)-2-methyl-2-(tetrahydro-pyran-4-ylamino)-propionamide] | 0.029 |  |
| CC(C)(C)c1cc(NC(=O)C(C)(C)N2CCC(F)(F)CC2)no1 [Example 28, N-(5-tert-Butyl-isoxazol-3-yl)-2-(4,4-difluoro-piperidin-1-yl)-isobutyramide] | 0.024 |  |
| CC1CCN(C(C)(C)C(=O)Nc2cc(C(C)(C)C)on2)CC1 [Example 21, N-(5-tert-Butyl-isoxazol-3-yl)-2-(4-methyl-piperidin-1-yl)-isobutyramide] | 0.0026 |  |
| CC(C)(NC1CCOCC1)C(=O)Nc1cc(C(C)(C)C)on1 [Example 40, N-(5-tert-Butyl-isoxazol-3-yl)-2-methyl-2-(tetrahydro-pyran-4-ylamino)-propionamide] | 0.035 |  |
| CN(C(C)(C)C(=O)Nc1cc(C(C)(C)C)on1)S(=O)(=O)c1ccc(Cl)cc1 [Example 48, N-(5-tert-Butyl-isoxazol-3-yl)-2-[(4-chloro-benzenesulfonyl)-methyl-amino]-2-methyl-propionamide] | 0.00036 |  |
| CC(C)(NC1CC1)C(=O)Nc1cc(C(C)(C)C)on1 [Example 23, N-(5-tert-Butyl-isoxazol-3-yl)-2-cyclopropylamino-2-methyl-propionamide] | 0.235 |  |
| CC(C)(NC1CCOCC1)C(=O)Nc1nc(-c2ccccc2)n[nH]1 [Example 42, 2-Methyl-N-(5-phenyl-2H-1,2,4-triazol-3-yl)-2-(tetrahydro-pyran-4-ylamino)-propionamide] | 0.26 |  |
| CC(C)(OC1CCOCC1)C(=O)Nc1cc(C(C)(C)C)no1 [Example 4, N-(3-tert-Butyl-isoxazol-5-yl)-2-methyl-2-(tetrahydro-pyran-4-yloxy)-propionamide] | 0.107 |  |
| CC1CCCCN1C(C)(C)C(=O)Nc1cc(C(C)(C)C)on1 (stereo not drawn) [Example 24, N-(5-tert-Butyl-isoxazol-3-yl)-2-(2-methyl-piperidin-1-yl)-isobutyramide] | 0.0012 |  |
| CCC(C)NC(C)(C)C(=O)Nc1cc(C(C)(C)C)on1 (stereo not drawn) [Example 11, 2-sec-Butylamino-N-(5-tert-butyl-isoxazol-3-yl)-2-methyl-propionamide] | 0.177 |  |
| CC(C)(OC1CCOCC1)C(=O)Nc1cc(C(C)(C)C)on1 [Example 5, N-(5-tert-Butyl-isoxazol-3-yl)-2-methyl-2-(tetrahydro-pyran-4-yloxy)-propionamide] | 0.123 |  |
| CC(C)(C)c1cc(NC(=O)C(C)(C)N2CCCC2)no1 [Example 27, N-(5-tert-Butyl-isoxazol-3-yl)-2-pyrrolidin-1-yl-isobutyramide] | 0.023 |  |
| CC(C)(C(=O)Nc1ccc(C(F)(F)F)cn1)N1CCCCC1 [Example 32, 2-Piperidin-1-yl-N-(5-trifluoromethyl-pyridin-2-yl)-isobutyramide] | 0.127 |  |
| COc1ccc(NC(C)(C)C(=O)Nc2cc(C(C)(C)C)on2)cc1 [Example 9, N-(5-tert-Butyl-isoxazol-3-yl)-2-(4-methoxy-phenylamino)-2-methyl-propionamide] | 0.0087 |  |
| CC1CCCN(C(C)(C)C(=O)Nc2cc(C(C)(C)C)on2)C1 (stereo not drawn) [Example 19, N-(5-tert-Butyl-isoxazol-3-yl)-2-(3-methyl-piperidin-1-yl)-isobutyramide] | 0.00034 |  |
| CC(C)(Oc1ccc(C(F)(F)F)cn1)C(=O)Nc1cc(C(C)(C)C)no1 [Example 8, N-(3-tert-Butyl-isoxazol-5-yl)-2-methyl-2-(5-trifluoromethyl-pyridin-2-yloxy)-propionamide] | 0.0001 |  |
